# Where a SMILES comes first, the peptide text is derived from it.
# Assays:
# Assay in all cases: microbe, parasite or virus in culture
# E. coli LEC001 = type: cell-based, Escherichia coli; details: E. coli LEC001 (R)
# Procedure, shortened: (§1)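 Peptides 128→2 μg/mL, 2-fold series; inoculum ~5 × 10^5 CFU/mL from overnight culture (OD600 0.01, mixed 1:1). MHB non-cation-adjusted for bacteria, RPMI 1640 + 2% glucose for fungi. 37 °C, 20 h, OD600. MIC50/MIC90 at 50%/90% inhibition; n ≥ 3.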
# E. coli NCTC 12923 = type: cell-based, Escherichia coli; details: E. coli NCTC 12923 (S)
# Procedure, shortened: as §1
# A. baumannii ATCC 17978 = type: cell-based, Acinetobacter baumannii; details: A. baumannii ATCC 17978 (S)
# Procedure, shortened: as §1
# A. baumannii AYE = type: cell-based, Acinetobacter baumannii; details: A. baumannii AYE (R)
# Procedure, shortened: as §1
# K. pneumoniae M6 = type: cell-based, Klebsiella pneumoniae; details: K. pneumoniae M6 (S)
# Procedure, shortened: as §1
# K. pneumoniae NCTC 13368 = type: cell-based, Klebsiella pneumoniae; details: K. pneumoniae NCTC 13368 (R)
# Procedure, shortened: as §1
# S. aureus (MRSA) 1199B = type: cell-based, Staphylococcus aureus; details: S. aureus (MRSA) 1199B (R)
# Procedure, shortened: as §1
# [1] = test system: S. aureus (MRSA) NCTC 13616; type: cell-based, Staphylococcus aureus; details: S. aureus (MRSA) NCTC 13616 (R)
# Procedure, shortened: as §1
# S. aureus (MRSA) USA300 = type: cell-based, Staphylococcus aureus; details: S. aureus (MRSA) USA300 (R)
# Procedure, shortened: as §1
# [2] = test system: S. aureus (MSSA) ATCC 9144; type: cell-based, Staphylococcus aureus; details: S. aureus (MSSA) ATCC 9144 (S)
# Procedure, shortened: as §1
# C. auris TDG 1912 = type: cell-based, Candida auris; details: C. auris TDG 1912
# Procedure, shortened: as §1
# C. albicans NCPF 3281 = type: cell-based; details: C. albicans NCPF 3281
# Procedure, shortened: as §1
# C. glabrata NCPF 8018 = type: cell-based; details: C. glabrata NCPF 8018
# Procedure, shortened: as §1
# C. krusei NCPF 3876 = type: cell-based; details: C. krusei NCPF 3876
# Procedure, shortened: as §1
# [3] = test system: C. parapsilosis NCPF 3209; type: cell-based; details: C. parapsilosis NCPF 3209
# Procedure, shortened: as §1
# C. tropicalis NCPF 8760 = type: cell-based; details: C. tropicalis NCPF 8760
# Procedure, shortened: as §1
# [4] = MHB, 37 °C, 20 h, OD600, min. three biological repeats
# [5] = MHB, ~5×10^5 CFU/mL, 37 °C, 20 h, OD600, min. three biological repeats
# [6] = 50% growth inhibition, RPMI 1640 + 2% glucose, 37 °C, 20 h, OD600
# [7] = 90% growth inhibition, RPMI 1640 + 2% glucose, 37 °C, 20 h, OD600
# [8] = 50% growth inhibition, RPMI 1640 + 2% glucose, 37 °C, 20 h
# [9] = 90% growth inhibition, RPMI 1640 + 2% glucose, 37 °C, 20 h
compound,measurement,setting,value
CC[C@H](C)[C@H](NC(=O)CNC(=O)[C@@H](N)CCCCN)C(=O)N[C@@H](CCCNC(=N)N)C(=O)NCC(=O)N[C@@H](Cc1ccc(O)cc1)C(=O)N[C@@H](CCCCN)C(=O)NCC(=O)NCC(=O)N[C@@H](Cc1ccc(O)cc1)C(=O)N[C@@H](CS)C(=O)N[C@@H](CCCCN)C(=O)NCC(=O)N[C@@H](C)C(=O)N[C@@H](Cc1ccccc1)C(=O)N[C@@H](CCCCN)C(=O)N[C@@H](CCC(N)=O)C(=O)N[C@H](C(=O)N[C@@H](CS)C(=O)N[C@@H](CCCCN)C(=O)N[C@@H](CS)C(=O)N[C@@H](Cc1ccc(O)cc1)C(N)=O)[C@@H](C)O [Osa] (H-KGIRGYKGGYCKGAFKQTCKCY-NH2; N-terminus assumed),Modal MIC,E. coli LEC001; [4],> 128 µg/mL
same,Modal MIC,E. coli LEC001; shown in µM,> 51.7 µM
same,Modal MIC,E. coli NCTC 12923; [5],> 128 µg/mL
same,Modal MIC,E. coli NCTC 12923; shown in µM,> 51.7 µM
same,Modal MIC,A. baumannii ATCC 17978; [4],> 128 µg/mL
same,Modal MIC,A. baumannii ATCC 17978; shown in µM,> 51.7 µM
same,Modal MIC,A. baumannii AYE; [4],> 128 µg/mL
same,Modal MIC,A. baumannii AYE; shown in µM,> 51.7 µM
same,Modal MIC,K. pneumoniae M6; [4],> 128 µg/mL
same,Modal MIC,K. pneumoniae M6; shown in µM,> 51.7 µM
same,Modal MIC,K. pneumoniae NCTC 13368; [4],> 128 µg/mL
same,Modal MIC,K. pneumoniae NCTC 13368; shown in µM,> 51.7 µM
same,Modal MIC,S. aureus (MRSA) 1199B; [4],> 128 µg/mL
same,Modal MIC,S. aureus (MRSA) 1199B; shown in µM,> 51.7 µM
same,Modal MIC,[1]; [4],> 128 µg/mL
same,Modal MIC,[1]; shown in µM,> 51.7 µM
same,Modal MIC,S. aureus (MRSA) USA300; [4],> 128 µg/mL
same,Modal MIC,S. aureus (MRSA) USA300; shown in µM,> 51.7 µM
same,Modal MIC,[2]; [4],> 128 µg/mL
same,Modal MIC,[2]; shown in µM,> 51.7 µM
same,Modal MIC50,C. auris TDG 1912; [6],> 128 µg/mL
same,Modal MIC90,C. auris TDG 1912; [7],> 128 µg/mL
same,Modal MIC50,C. auris TDG 1912; shown in µM,> 51.7 µM
same,Modal MIC90,C. auris TDG 1912; shown in µM,> 51.7 µM
same,Modal MIC50,C. albicans NCPF 3281; [8],> 128 µg/mL
same,Modal MIC90,C. albicans NCPF 3281; [9],> 128 µg/mL
same,Modal MIC50,C. albicans NCPF 3281; shown in µM,> 51.7 µM
same,Modal MIC90,C. albicans NCPF 3281; shown in µM,> 51.7 µM
same,Modal MIC50,C. glabrata NCPF 8018; [8],> 128 µg/mL
same,Modal MIC90,C. glabrata NCPF 8018; [9],> 128 µg/mL
same,Modal MIC50,C. glabrata NCPF 8018; shown in µM,> 51.7 µM
same,Modal MIC90,C. glabrata NCPF 8018; shown in µM,> 51.7 µM
same,Modal MIC50,C. krusei NCPF 3876; [8],> 128 µg/mL
same,Modal MIC90,C. krusei NCPF 3876; [9],> 128 µg/mL
same,Modal MIC50,C. krusei NCPF 3876; shown in µM,> 51.7 µM
same,Modal MIC90,C. krusei NCPF 3876; shown in µM,> 51.7 µM
same,Modal MIC50,[3]; [8],> 128 µg/mL
same,Modal MIC90,[3]; [9],> 128 µg/mL
same,Modal MIC50,[3]; shown in µM,> 51.7 µM
same,Modal MIC90,[3]; shown in µM,> 51.7 µM
same,Modal MIC50,C. tropicalis NCPF 8760; [8],> 128 µg/mL
same,Modal MIC90,C. tropicalis NCPF 8760; [9],> 128 µg/mL
same,Modal MIC50,C. tropicalis NCPF 8760; shown in µM,> 51.7 µM
same,Modal MIC90,C. tropicalis NCPF 8760; shown in µM,> 51.7 µM
CC(C)C[C@H](NC(=O)[C@H](CCCCN)NC(=O)[C@H](CO)NC(=O)[C@H](CCCCN)NC(=O)[C@@H](N)Cc1c[nH]c2ccccc12)C(=O)N[C@@H](C)C(=O)N[C@@H](CCCCN)C(=O)N[C@@H](CCCCN)C(N)=O [PS-PB-8a] (H-WKSKLAKK-NH2),Modal MIC,E. coli LEC001; [4],> 128 µg/mL
same,Modal MIC,E. coli LEC001; shown in µM,> 127.2 µM
same,Modal MIC,E. coli NCTC 12923; [5],> 128 µg/mL
same,Modal MIC,E. coli NCTC 12923; shown in µM,> 127.2 µM
same,Modal MIC,A. baumannii ATCC 17978; [4],> 128 µg/mL
same,Modal MIC,A. baumannii ATCC 17978; shown in µM,> 127.2 µM
same,Modal MIC,A. baumannii AYE; [4],> 128 µg/mL
same,Modal MIC,A. baumannii AYE; shown in µM,> 127.2 µM
same,Modal MIC,K. pneumoniae M6; [4],> 128 µg/mL
same,Modal MIC,K. pneumoniae M6; shown in µM,> 127.2 µM
same,Modal MIC,K. pneumoniae NCTC 13368; [4],> 128 µg/mL
same,Modal MIC,K. pneumoniae NCTC 13368; shown in µM,> 127.2 µM
same,Modal MIC,S. aureus (MRSA) 1199B; [4],> 128 µg/mL
same,Modal MIC,S. aureus (MRSA) 1199B; shown in µM,> 127.2 µM
same,Modal MIC,[1]; [4],> 128 µg/mL
same,Modal MIC,[1]; shown in µM,> 127.2 µM
same,Modal MIC,S. aureus (MRSA) USA300; [4],> 128 µg/mL
same,Modal MIC,S. aureus (MRSA) USA300; shown in µM,> 127.2 µM
same,Modal MIC,[2]; [4],> 128 µg/mL
same,Modal MIC,[2]; shown in µM,> 127.2 µM
same,Modal MIC50,C. auris TDG 1912; [6],> 128 µg/mL
same,Modal MIC90,C. auris TDG 1912; [7],> 128 µg/mL
same,Modal MIC50,C. auris TDG 1912; shown in µM,> 127.2 µM
same,Modal MIC90,C. auris TDG 1912; shown in µM,> 127.2 µM
same,Modal MIC50,C. albicans NCPF 3281; [8],> 128 µg/mL
same,Modal MIC90,C. albicans NCPF 3281; [9],> 128 µg/mL
same,Modal MIC50,C. albicans NCPF 3281; shown in µM,> 127.2 µM
same,Modal MIC90,C. albicans NCPF 3281; shown in µM,> 127.2 µM
same,Modal MIC50,C. glabrata NCPF 8018; [8],> 128 µg/mL
same,Modal MIC90,C. glabrata NCPF 8018; [9],> 128 µg/mL
same,Modal MIC50,C. glabrata NCPF 8018; shown in µM,> 127.2 µM
same,Modal MIC90,C. glabrata NCPF 8018; shown in µM,> 127.2 µM
same,Modal MIC50,C. krusei NCPF 3876; [8],> 128 µg/mL
same,Modal MIC90,C. krusei NCPF 3876; [9],> 128 µg/mL
same,Modal MIC50,C. krusei NCPF 3876; shown in µM,> 127.2 µM
same,Modal MIC90,C. krusei NCPF 3876; shown in µM,> 127.2 µM
same,Modal MIC50,[3]; [8],> 128 µg/mL
same,Modal MIC90,[3]; [9],> 128 µg/mL
same,Modal MIC50,[3]; shown in µM,> 127.2 µM
same,Modal MIC90,[3]; shown in µM,> 127.2 µM
same,Modal MIC50,C. tropicalis NCPF 8760; [8],> 128 µg/mL
same,Modal MIC90,C. tropicalis NCPF 8760; [9],> 128 µg/mL
same,Modal MIC50,C. tropicalis NCPF 8760; shown in µM,> 127.2 µM
same,Modal MIC90,C. tropicalis NCPF 8760; shown in µM,> 127.2 µM

# From PMC11191095, “QSAR Reveals Decreased Lipophilicity of Polar Residues Determines the Selectivity of Antimicrobial Peptide Activity” (ACS Omega, 2024)
